Holding throughout (format): in vivo
In one data set the test system is corn. Briefly: Test Example 5: effect on crop by foliage application, plastic box (symbol c). To be noted: 320 g/ha, 3 weeks after application. The method, boiled down: (§1)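 A greenhouse held between 25° C. and 30° C. was used to grow plants sown spot-wise, beneath ~1.5 cm of soil, in boxes of sterilized diluvial soil.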
In data set [1] the test system is Avena fatua. Briefly: Test Example 5: herbicidal effect by foliage application, plastic box (symbol I). Particulars: 320 g/ha, 3 weeks after application. An outline of the steps:
(§2)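 Greenhouse foliar test: seedlings at 14 days, grown 25° C. to 30° C. in sterilized diluvial soil; compound applied as an aqueous dilution of an emulsion; response read 3 weeks after spraying.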

For data set [2], the system named is Echinochloa crus-galli var. crus-galli. Briefly: Test Example 4: herbicidal effect by soil treatment (symbol H). Particulars: application herbicide amount 320 g/ha. An outline of the steps: (§3)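 Seeds were sown in sterilized diluvial soil, covered with about 1.5 cm of soil, and the soil surface was sprayed with a water-diluted emulsion of the compound at a predetermined rate. Plants grew in a greenhouse at 25° C. to 30° C.; effects were scored visually 3 weeks after application.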

Data set [3] deals with Avena fatua. Briefly: Test Example 4: herbicidal effect by soil treatment (symbol I). To be noted: application herbicide amount 320 g/ha. An outline of the steps: as §3
The next data set concerns rice. Kind of data set: Test Example 4: effect on crop by soil treatment (symbol b). To be noted: application herbicide amount 320 g/ha. An outline of the steps: (§4)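 Sterilized diluvial soil, spot sowing, ~1.5 cm soil cover; greenhouse 25–30° C.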
The test system of data set [4] is Monochoria vaginalis. Kind of data set: Test Example 2: herbicidal activity, application during weed generation in submerged conditions (symbol C). To be noted: Table 23; application herbicide amount 320 g/ha; grade 0-5 by criteria of Test Example 1. An outline of the steps: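 Each pot contained alluvial soil under 4 cm of water with seeds of all three weeds sown together. Following growth at 25° C. to 30° C. to the one- to two-leaf stage, the floodwater received diluted emulsion at a predetermined amount; visual assessment followed at 3 weeks.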

The test system of the next data set is soybean. Briefly: Test Example 4: effect on crop by soil treatment (symbol d). To be noted: application herbicide amount 320 g/ha. The method, boiled down:
as §4

Data set [5] concerns Apera spica-venti. Briefly: Test Example 4: herbicidal effect by soil treatment (symbol L). To be noted: application herbicide amount 320 g/ha. The method, boiled down:
as §3

In data set [6] the test system is Echinochloa oryzacola Vasing. Briefly: Test Example 1: herbicidal activity, application before weed generation in submerged conditions (symbol A). To be noted: application herbicide amount 320 g/ha. An outline of the steps:
(§5)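 Steps: alluvial soil flooded to 4 cm; weed seeds sown together; rice seedlings (2.5 leaf) transplanted; diluted emulsion applied to water surface the same day as sowing; plants grown at 25–30 °C in greenhouse; herbicidal effect rated on a 0–5 scale at 3 weeks.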

Data set [7] deals with Apera spica-venti. Kind of data set: Test Example 5: herbicidal effect by foliage application, plastic box (symbol L). Particulars: 320 g/ha, 3 weeks after application. An outline of the steps:
as §2

The test system of a further data set is Abutilon theophrasti. Kind of data set: Test Example 4: herbicidal effect by soil treatment (symbol M). Particulars: application herbicide amount 320 g/ha. An outline of the steps:
as §3

The subject of data set [8] is Echinochloa crus-galli var. crus-galli. Briefly: Test Example 5: herbicidal effect by foliage application, plastic box (symbol H). Particulars: 320 g/ha, 3 weeks after application. An outline of the steps:
as §2

The test system of another data set is beet. Briefly: Test Example 4: effect on crop by soil treatment (symbol f). To be noted: application herbicide amount 320 g/ha. The method, boiled down:
as §4

A further data set has as its system Setaria viridis. Briefly: Test Example 5: herbicidal effect by foliage application, plastic box (symbol G). Particulars: 320 g/ha, 3 weeks after application. An outline of the steps: as §2
In data set [9] the test system is Monochoria vaginalis. Briefly: Test Example 1: herbicidal activity, application before weed generation in submerged conditions (symbol C). To be noted: application herbicide amount 320 g/ha. An outline of the steps:
as §5

The test system of the next data set is rapeseed. Briefly: Test Example 5: effect on crop by foliage application, plastic box (symbol g). To be noted: 320 g/ha, 3 weeks after application. The method, boiled down: as §1

In the case of `CCc1cc(Br)cc(C)c1C1=C(O)CC(C(C(C)=O)C(=O)OC)C1=O` (stereo not shown) [7-001], in the data set with corn, the “c: corn, effect on crop (criteria of Test Example 1)” value is 2 (Herbicidal ratio of 20% or higher and lower than 40%). Besides, the “I: Avena fatua, herbicidal effect (criteria of Test Example 1)” value with Avena fatua [1] was 3 (Herbicidal ratio of 40% or higher and lower than 70%). In addition, in data set [2], the “Herbicidal effect grade, H: Echinochloa crus-galli var. crus-galli” value was 4 (Herbicidal ratio of 70% or higher and lower than 90%). In addition, the “Herbicidal effect grade, I: Avena fatua” value in the data set on Avena fatua [3] was 3 (Herbicidal ratio of 40% or higher and lower than 70%). Further, the “Effect on crop grade, b: directly sowed rice plant” value with rice was 4 (Herbicidal ratio of 70% or higher and lower than 90%). Also, the “Herbicidal effect grade, C: Monochoria vaginalis” value (“Herbicidal effect grade, C” below) with Monochoria vaginalis [4] and with Monochoria vaginalis [9] was 0 (Herbicidal ratio of 5% or lower (almost no effect)) each time. In addition, in the data set with soybean, the “Effect on crop grade, d: soybean” value was 0 (Herbicidal ratio of 5% or lower (almost no effect)). Also, the “Herbicidal effect grade, L: Apera spica-venti” value in the data set with Apera spica-venti [5] is 0 (Herbicidal ratio of 5% or lower (almost no effect)). In [6], the “Herbicidal effect grade, A: Echinochloa oryzacola Vasing.” value is recorded as 0 (Herbicidal ratio of 5% or lower (almost no effect)). For the same molecule, in the data set with Apera spica-venti [7], the “L: Apera spica-venti, herbicidal effect (criteria of Test Example 1)” value was 3 (Herbicidal ratio of 40% or higher and lower than 70%). In the data set with Abutilon theophrasti, the “Herbicidal effect grade, M: Abutilon theophrasti” value is on record as 0 (Herbicidal ratio of 5% or lower (almost no effect)). Besides, the “H: Echinochloa crus-galli var. crus-galli, herbicidal effect (criteria of Test Example 1)” value in data set [8] is 4 (Herbicidal ratio of 70% or higher and lower than 90%). The “Effect on crop grade, f: beet” value with beet is on record as 0 (Herbicidal ratio of 5% or lower (almost no effect)). For the same molecule, the “G: Setaria viridis, herbicidal effect (criteria of Test Example 1)” value in the data set with Setaria viridis is 3 (Herbicidal ratio of 40% or higher and lower than 70%). Moreover, the “g: rapeseed, effect on crop (criteria of Test Example 1)” value with rapeseed is listed as 0 (Herbicidal ratio of 5% or lower (almost no effect)).

For `CON=C(C)CC1CC(O)=C(c2c(C)cc(-c3ccccn3)cc2C)C1=O` (mixture of isomers) [6-051], the “c: corn, effect on crop grade” value in the data set with corn is 5 (Herbicidal ratio of 90% or more (almost completely withered)). The “I: Avena fatua, herbicidal effect grade” value with Avena fatua [1] is 4 (Herbicidal ratio of 70% or higher and lower than 90%); with Avena fatua [3], 1 (Herbicidal ratio of 5% or higher and lower than 20%). Besides, the “H: Echinochloa crus-galli var. crus-galli, herbicidal effect grade” value in data set [2] and in [8] was 5 (Herbicidal ratio of 90% or more (almost completely withered)) in each case. Moreover, the “b: directly sowed rice plant, effect on crop grade” value with rice is 5 (Herbicidal ratio of 90% or more (almost completely withered)). Also, the “Herbicidal effect grade, C” value with Monochoria vaginalis [4] was 2 (Herbicidal ratio of 20% or higher and lower than 40%); in the data set with Monochoria vaginalis [9], 2 (Herbicidal ratio of 20% or higher and lower than 40%). The “d: soybean, effect on crop grade” value with soybean was 1 (Herbicidal ratio of 5% or higher and lower than 20%). In addition, the “L: Apera spica-venti, herbicidal effect grade” value in the data set on Apera spica-venti [5] and in the data set with Apera spica-venti [7] was 5 (Herbicidal ratio of 90% or more (almost completely withered)) throughout. Also, the “Herbicidal effect grade, A: Echinochloa oryzacola Vasing.” value in [6] is 4 (Herbicidal ratio of 70% or higher and lower than 90%). For the same molecule, the “M: Abutilon theophrasti, herbicidal effect grade” value in the data set with Abutilon theophrasti was 1 (Herbicidal ratio of 5% or higher and lower than 20%). The “f: beet, effect on crop grade” value in the data set with beet is listed as 0 (Herbicidal ratio of 5% or lower (almost no effect)). In the data set with Setaria viridis, the “G: Setaria viridis, herbicidal effect grade” value was 5 (Herbicidal ratio of 90% or more (almost completely withered)). Moreover, the “g: rapeseed, effect on crop grade” value with rapeseed is reported as 5 (Herbicidal ratio of 90% or more (almost completely withered)).

As for `CON=C(C)CC1CC(O)=C(c2c(C)cc(OCc3ccncc3)cc2C)C1=O` (mixture of isomers) [6-053], the “c: corn, effect on crop grade” value with corn was 2 (Herbicidal ratio of 20% or higher and lower than 40%). Besides, the “I: Avena fatua, herbicidal effect grade” value in the data set on Avena fatua [1] was 3 (Herbicidal ratio of 40% or higher and lower than 70%); in the data set with Avena fatua [3], 1 (Herbicidal ratio of 5% or higher and lower than 20%). Moreover, the “H: Echinochloa crus-galli var. crus-galli, herbicidal effect grade” value in data set [2] was 2 (Herbicidal ratio of 20% or higher and lower than 40%); in data set [8], 5 (Herbicidal ratio of 90% or more (almost completely withered)). The “b: directly sowed rice plant, effect on crop grade” value in the data set with rice is 2 (Herbicidal ratio of 20% or higher and lower than 40%). In addition, the “Herbicidal effect grade, C” value is 2 (Herbicidal ratio of 20% or higher and lower than 40%) in the data set with Monochoria vaginalis [4]; 1 (Herbicidal ratio of 5% or higher and lower than 20%) with Monochoria vaginalis [9]. In the data set with soybean, the “d: soybean, effect on crop grade” value is listed as 0 (Herbicidal ratio of 5% or lower (almost no effect)). Also, the “L: Apera spica-venti, herbicidal effect grade” value with Apera spica-venti [5] was 0 (Herbicidal ratio of 5% or lower (almost no effect)); in the data set with Apera spica-venti [7], 4 (Herbicidal ratio of 70% or higher and lower than 90%). Also, the “Herbicidal effect grade, A: Echinochloa oryzacola Vasing.” value in data set [6] is 4 (Herbicidal ratio of 70% or higher and lower than 90%). Further, the “M: Abutilon theophrasti, herbicidal effect grade” value in the data set with Abutilon theophrasti was 0 (Herbicidal ratio of 5% or lower (almost no effect)). Also, the “f: beet, effect on crop grade” value with beet was 0 (Herbicidal ratio of 5% or lower (almost no effect)). In the data set on Setaria viridis, the “G: Setaria viridis, herbicidal effect grade” value is on record as 5 (Herbicidal ratio of 90% or more (almost completely withered)). Besides, in the data set on rapeseed, the “g: rapeseed, effect on crop grade” value was 3 (Herbicidal ratio of 40% or higher and lower than 70%).

In the case of `CC(CC1CC(O)=C(c2c(C)cc(C)cc2C)C1=O)=NOCc1ccccn1` (stereo not shown) [1-022], in the data set with corn, the “c: corn, effect on crop grade” value was 3 (Herbicidal ratio of 40% or higher and lower than 70%). Moreover, the “I: Avena fatua, herbicidal effect grade” value in the data set with Avena fatua [1] is 5 (Herbicidal ratio of 90% or more (almost completely withered)). Also, the “H (Echinochloa crus-galli var. crus-galli) herbicidal effect grade” value in [2] is listed as 5 (Herbicidal ratio of 90% or more (almost completely withered)). In addition, the “I (Avena fatua) herbicidal effect grade” value in the data set with Avena fatua [3] is 4 (Herbicidal ratio of 70% or higher and lower than 90%). In the data set on rice, the “b (directly sowed rice plant) effect on crop grade” value is on record as 5 (Herbicidal ratio of 90% or more (almost completely withered)). The “Herbicidal effect grade, C” value is 3 (Herbicidal ratio of 40% or higher and lower than 70%) in the data set with Monochoria vaginalis [4]; 2 (Herbicidal ratio of 20% or higher and lower than 40%) in the data set on Monochoria vaginalis [9]. Besides, in the data set on soybean, the “d (soybean) effect on crop grade” value is 0 (Herbicidal ratio of 5% or lower (almost no effect)). Also, in the data set on Apera spica-venti [5], the “L (Apera spica-venti) herbicidal effect grade” value is 5 (Herbicidal ratio of 90% or more (almost completely withered)). Further, in data set [6], the “Herbicidal effect grade, A: Echinochloa oryzacola Vasing.” value was 5 (Herbicidal ratio of 90% or more (almost completely withered)). Also, the “L: Apera spica-venti, herbicidal effect grade” value with Apera spica-venti [7] is recorded as 5 (Herbicidal ratio of 90% or more (almost completely withered)). Besides, the “M (Abutilon theophrasti) herbicidal effect grade” value in the data set on Abutilon theophrasti is reported as 0 (Herbicidal ratio of 5% or lower (almost no effect)). In addition, the “H: Echinochloa crus-galli var. crus-galli, herbicidal effect grade” value in data set [8] was 5 (Herbicidal ratio of 90% or more (almost completely withered)). Also, the “f (beet) effect on crop grade” value with beet is 3 (Herbicidal ratio of 40% or higher and lower than 70%). Besides, in the data set with Setaria viridis, the “G: Setaria viridis, herbicidal effect grade” value is 5 (Herbicidal ratio of 90% or more (almost completely withered)). In addition, the “g: rapeseed, effect on crop grade” value with rapeseed was 4 (Herbicidal ratio of 70% or higher and lower than 90%).

(Values after US11000033B2, “Ketone or oxime compound, and herbicide” (NISSAN CHEMICAL CORPORATION, priority 2014, dated 2021).)
